Source: US9464280B1, “Beta-lactamases with improved properties for therapy” (priority 2014, dated 2016)
Converted amounts (≈) assume the structure as drawn. Like-named read-outs stand apart in the source and are kept apart here.

Columns and labels:
[1] = system: Escherichia coli ATCC 25922; assay: Microbroth dilution: EC50 of ampicillin and ceftriaxone in absence and presence of P1A; format: cell-based; settings: Escherichia coli, ATCC25922, P1A 0, read-out: Ampiellin EC50
Procedure: (§1) Escherichia coli strain 25922 was cultured from glycerol stocks to logarithmic growth in cation adjusted Mueller-Hinton broth at 37° C. in an atmospheric environment and diluted in cation adjusted Mueller-Hinton broth to achieve a starting in well concentration of 5×10^5 CFU/mL. Serial 2-fold dilution of antimicrobial compounds were prepared in cation adjusted Mueller-Hinton broth to achieve final in well concentration of 128 μg/mL to 0.13 μg/mL for ampicillin and 4 μg/mL 4 ng/mL in the absence or presence of serial 10-fold dilutions of P1A, P3A, or P4A β-lactamase standard, 5 pg/mL to 50 ng/mL for ampicillin and […] to 500 ng/mL for ceftriaxone, ceftazidime, meropenem, cefepime, cefazolin, amp/sulbactam, cefoperazone, cefotaxime, and cefuroxime. Antibiotics were either added to the P1A and incubated for 30 min at 37° C. (pre-incubation) prior to addition of bacteria, or added to the plates following the addition of P1A, P3A, P4A, and bacteria (simultaneous). All concentrations and combinations were evaluated in triplicate in a 96-well plate format that contained media only, compound plus media only (colorimetric control), and untreated bacterial controls.
The 50% effective inhibitory concentration (EC50) of ampicillin and ceftriaxone against Escherichia coli was determined in the absence and presence of P1A β-lactamase. For the purposes of these studies, the stated effective concentration was the initial concentration of ampicillin or ceftriaxone added at the beginning of the experiment, and not a concentration measured during the course of the experiment or at the end of the incubation period.
Antibiotics were either added to the P1A and incubated for 30 min at 37° C. (Pre-incubation) prior to addition of bacteria, or added to the plates following the addition of P1A and bacteria (Simultaneous). All concentrations and combinations were evaluated in triplicate in a 96-well plate format. Following overnight incubation, the 0D625 of the plates was measured in a Spectramax 384 plate reader and the data were imported into a customized Excel spreadsheet for the determination of the 50% effective inhibitory concentration at (EC50) by linear regression analysis. For the purposes of these studies, the stated effective concentration is the initial concentration of ampicillin or ceftriaxone added at the beginning of the experiment, and not a concentration measured during the course of the experiment or at the end of the incubation period.
Antibiotics were either added to the P1A and incubated for 30 min at 37° C. (Pre-incubation) prior to addition of bacteria, or added to the plates following the addition of P1A and bacteria (Simultaneous). All concentrations and combinations were evaluated in triplicate in a 96-well plate format. Following overnight incubation, the OD625 of the plates was measured in a Spectramax 384 plate reader and the data were imported into a customized Excel spreadsheet for the determination of the 50% effective inhibitory concentration (EC50).
Antibiotics were added to the P1A bacteria (Simultaneous). All concentrations and combinations were evaluated in triplicate in a 96-well plate format. Following overnight incubation, the OD625 of the plates was measured in a Spectramax 384 plate reader and the data were imported into a customized Excel spreadsheet for the determination of the 50% effective inhibitory concentration at (EC50) by linear regression analysis.

[2] = system: Escherichia coli ATCC 25922; assay: microbe, parasite or virus in culture; format: cell-based; settings: for EC50 / EC90: Escherichia coli, ATCC25922, no enzyme
[3] = system: Escherichia coli ATCC 25922; assay: microbe, parasite or virus in culture; format: cell-based; settings: for EC90: Escherichia coli, ATCC25922, no enzyme
Procedure: as §1
Next, the 90% effective inhibitory concentration (EC90) of ampicillin, ceftriaxone, ceftazidime, meropenem, cefepime, cefazolin, amp/sulbactam, cefoperazone, cefotaxime, and cefuroxime against Escherichia coli was determined in the absence and presence of P1A, P3A, or P4A β-lactamase. For the purposes of these studies, the stated effective concentration was the initial concentration of ampicillin, ceftriaxone, ceftazidime, meropenem, cefepime, cefazolin, amp/sulbactam, cefoperazone, cefotaxime, and cefuroxime added at the beginning of the experiment, and not a concentration measured during the course of the experiment or at the end of the incubation period.
Specifically, the assay was performed by diluting (2-fold steps) the chosen antibiotic across the rows of a 96 well dish. The MIC was determined as the point at which the diluted antibiotic transitions from killing to not killing the bacteria (in this case, an E. coli strain that is sensitive to all antibiotics). P1A, P3A, and P4A were diluted (10 fold steps) down the columns (the β-lactamase concentrations increased down the columns). […] The latter point was used as the cut-off point. […] However, for this assay, the absolute MIC is not the most important parameter. The most relevant readout was the β-lactamase concentration at which the apparent MIC increases to the maximum amount of antibiotic tested.
(§2) E coli 29522 was incubated overnight in the presence of serial dilutions of antibiotic and the indicated amounts of β-lactamase protein from cell culture supernatants in a 96 well plate. Bacterial density (OD625) of the cultures was measured and the concentration at which the density was reduced by 90% relative to an untreated bacterial control (EC90) was determined. The assay was performed on two separate days and the data reported as Rep1 and Rep2. NA=not assayed.
as §2, with “determined.” for “determined. The assay was performed on two separate days and the data reported as Rep1 and Rep2. NA=not assayed.”

[4] = Preliminary enzymatic activity of P1A mutants from B. subtilis supernatants; format: biochemical; settings: B. subtilis supernatant, one substrate concentration
Procedure: β-lactamase activity of the mutants was further characterised from E. coli cell lysates and B. subtilis growth supernatant with ampicillin, cefotaxime, ceftriaxone, cefuroxime, ceftazidime, meropenem and imipenem. The activities were determined using only one substrate concentration of each antibiotic tested. Selection of the antibiotic concentration was done with the antibiotic concentration as high as was practical, [S]>>Km. Based on these preliminary experiments, more accurate kinetic parameters were determined for a couple of mutants from both the site-directed and the random mutagenesis research lines. All the mutant enzymes selected for more detailed study were expressed in the B. subtilis host strain RS303. The cells carrying the mutated proteins were grown in minimal medium over-night after which the cells were harvested and the supernatant was concentrated in 1:10 with Amicon Ultra-4 centrifugal devices, MWCO 10000 (Amicon). Protein concentration in each culture supernatant was estimated from 12% SDS-PAGE (Criterion XT Bis-Tris, BioRad, Calif., USA) using the P1A reference material A18K31 as a standard. Kinetic parameters were measured for cefotaxime, ceftriaxone and cefuroxime for each selected mutant strain. The site-directed mutants were designed to hydrolyze cefotaxime and random mutants were screened with ceftriaxone, which made these antibiotics natural choices for determining kinetic parameters.

E. coli (ATCC 25922) = assay: Microtiter plate antibiotic degradation activity assay; format: cell-based
Procedure: P1A and P4A were screened for degradation of ampicillin, ceftriazone, cefotaxime, cefozolin, cefuroxime, cefoperazone, cefepime, and ceftazidime in a microtiter plate activity assay that was designed to mimic the activity of the beta-lactamases in the gut in the presence of high antibiotic concentrations. The assay was performed by mixing 10, 100 or 1000 μg/ml of the indicated antibiotics with P1A or P4A, at concentrations of 10 or 100 ng/ml. Plates were either incubated for one hour at 37° C. after which E. coli (ATCC 25922) was added, or E. coli was added immediately after the addition of the beta-lactamase enzymes. The plates were incubated overnight and the bacterial growth quantified by measuring the absorbance at 625 nm (OD625) in a Spectramax 384 Plus plate reader. The analysis was performed twice for each beta-lactamase and antibiotic. The beta-lactamase activity of the culture supernatants was determined as positive or negative based on the appearance of bacterial growth in the individual wells. An OD625 of 1.0 or greater indicated maximal bacterial growth, therefore complete antibiotic degradation and high beta-lactamase activity.

[5] = no enzyme, 2nd value, high test 2 μg/mL

CC1(C)S[C@@H]2[C@H](NC(=O)[C@H](N)c3ccccc3)C(=O)N2[C@H]1C(=O)O [Ampicillin]
EC50 ([1]; pre-incubation, Table 12): 16 µg/mL
EC50 ([1]; pre-incubation, Table 13): 16 µg/mL
EC50 ([1]; simultaneous, Table 12): 16 µg/mL
EC50 ([1]; simultaneous, Table 13): 16 µg/mL
EC50 ([1]; simultaneous, Table 14 repeat analysis): 16 µg/mL
EC50 ([2]; Rep 1, Table 15, read-out: Ampiellin EC50): 2 µg/mL (≈ 5.72 µM)
EC50 ([2]; Rep 2, Table 15, read-out: Ampiellin EC50): 4 µg/mL (≈ 11.4 µM)

Cc1nnc(SCC2=C(C(=O)O)N3C(=O)[C@@H](NC(=O)Cn4cnnn4)[C@H]3SC2)s1 [Cefazolin]
EC90 ([2]; 1st value, high test 64 μg/mL, read-out: Cefazolin EC90): 2 µg/mL (≈ 4.4 µM)
EC90 ([2]; 2nd value, high test 64 μg/mL, read-out: Cefazolin EC90): 2 µg/mL (≈ 4.4 µM)

CO/N=C(\C(=O)N[C@@H]1C(=O)N2C(C(=O)[O-])=C(C[N+]3(C)CCCC3)CS[C@H]12)c1csc(N)n1 [Cefepime]
EC50 ([2]; 1st value, high test 2 μg/mL, read-out: Cefepime EC50): 0.06 µg/mL (≈ 0.125 µM)
EC50 ([2]; 2nd value, high test 2 μg/mL, read-out: Cefepime EC50): 0.03 µg/mL (≈ 0.0624 µM)
Cefepime EC50 [2, 5]: 0.03/0.03 μg/mL

CCN1CCN(C(=O)N[C@@H](C(=O)N[C@@H]2C(=O)N3C(C(=O)O)=C(CSc4nnnn4C)CS[C@H]23)c2ccc(O)cc2)C(=O)C1=O [Cefoperazone]
Cefoperazone EC90 ([3]; no enzyme, 1st value, high test 8 μg/mL): 0.25/0.25 μg/mL
EC90 ([2]; 1st value, high test 8 μg/mL, read-out: Cefoperazone EC90): 0.25 µg/mL (≈ 0.387 µM)
EC90 ([2]; 2nd value, high test 8 μg/mL, read-out: Cefoperazone EC90): 0.13 µg/mL (≈ 0.201 µM)
Cefoperazone EC90 ([2]; no enzyme, 2nd value, high test 8 μg/mL): 0.25/0.25 μg/mL

CO/N=C(\C(=O)N[C@@H]1C(=O)N2C(C(=O)O)=C(COC(C)=O)CS[C@H]12)c1csc(N)n1 [Cefotaxime]
EC90 ([3]; 2nd value, high test 2 μg/mL, read-out: Cefotaxime EC90): 0.008 µg/mL
EC90 ([2]; 1st value, high test 2 μg/mL, read-out: Cefotaxime EC90): 0.004 µg/mL (≈ 0.00878 µM)
Cefotaxime EC90 ([2]; no enzyme, 1st value, high test 2 μg/mL): 0.004/0.004 μg/mL
Cefotaxime EC90 [2, 5]: 0.004/0.004 μg/mL

CC(C)(O/N=C(\C(=O)N[C@@H]1C(=O)N2C(C(=O)[O-])=C(C[n+]3ccccc3)CS[C@H]12)c1csc(N)n1)C(=O)O [Ceftazidime]
EC50 ([2]; 1st value, high test 4 μg/mL, read-out: Ceftazidime EC50): 0.13 µg/mL (≈ 0.238 µM)
Ceftazidime EC50 ([2]; no enzyme, 1st value, high test 4 μg/mL): 0.13/0.13 μg/mL
Ceftazidime EC50 ([2]; no enzyme, 2nd value, high test 4 μg/mL): 0.5 µg/mL

CO/N=C(\C(=O)N[C@@H]1C(=O)N2C(C(=O)O)=C(COC(N)=O)CS[C@H]12)c1ccco1 [Cefuroxime]
EC90 ([3]; 1st value, high test 128 μg/mL, read-out: Cefuroxime EC90): 4 µg/mL
Cefuroxime EC90 ([3]; no enzyme, 1st value, high test 128 μg/mL): 2.0 µg/mL
EC90 ([2]; 2nd value, high test 128 μg/mL, read-out: Cefuroxime EC90): 4 µg/mL (≈ 9.43 µM)
Cefuroxime EC90 ([2]; no enzyme, 2nd value, high test 128 μg/mL): 2.0 µg/mL

C[C@@H](O)[C@H]1C(=O)N2C(C(=O)O)=C(S[C@@H]3CN[C@H](C(=O)N(C)C)C3)[C@H](C)[C@H]12 [Meropenem]
EC50 ([2]; 1st value, high test 1 μg/mL, read-out: Meropenem EC50): 0.06 µg/mL (≈ 0.156 µM)
EC50 ([2]; 2nd value, high test 1 μg/mL, read-out: Meropenem EC50): 0.06 µg/mL (≈ 0.156 µM)
Meropenem EC50 ([2]; no enzyme, 2nd value, high test 1 μg/mL): 0.03 µg/mL

IS203: P1A with T160F
AMP = ampicillin enzymatic activity [4]: 0.01 multiples of P1A
CAZ = ceftazidime enzymatic activity [4]: 0.13 multiples of P1A
CRO = ceftriaxone enzymatic activity [4]: 0.00 multiples of P1A
CTX = cefotaxime enzymatic activity [4]: 0.01 multiples of P1A
CXM = cefuroxime enzymatic activity [4]: 0.00 multiples of P1A

B1: IS288: P1A with A232G A237S A238G S240D D276N; SEQ ID NO: 5 (protein)
chain: EMKDDFAKLEEQFDAKLGIFALDTGTNRTVAYRPDERFAFASTIKALTVGVLLQQKSIEDLNQRITTRDDLVNYNPITEKHVDTGMTLKELADASLRYSDNAAQNLILKQIGGPESLKKELRKIGDEVTNPERFEPELNEVNPGETQDTSTARALVTSLRAFALEDKLPSEKRELLIDWMKRNTTGDALIRAGVPDGWEVGDKTGSGDYGTRNDIAIIWPPKGDPVVLAVLSSRDKKDAKYDNKLIAEATKVVMKALNMNGK
activity relative to P1A, all antibiotics except ampicillin (E. coli (ATCC 25922); enzyme 10 or 100 ng/ml, FIG. 8): imporved activity relative to P1A
cephalosporinase activity boosted relative to P1A (E. coli (ATCC 25922); modification of five amino acids in P1A): 10-1000 fold
inhibition by sulbactam ([3]; amp/sulbactam data): effectively inhibited
improvement of activity for ceftazidime ([2]; data showed activity at 500 ng/ml): 10 fold
β-lactamase activity in comparison to P1A ([2]; for ceftriaxone, cefotaxime, ceftazidime, cefazolin, cefoperazone and cefuroxime): ≥ 10 fold
